Results as given in article PMC7012964, “Biopharmaceutical Understanding of Excipient Variability on Drug Apparent Solubility Based on Drug Physicochemical Properties. Case Study: Superdisintegrants” (The AAPS Journal, 2020).
Values after ≈ are worked out from the molar mass of the structure shown. Read-outs that look alike come from different tables or passages of the source.

Tests used:
[1] = ref (20), (22), (23), (25), DrugBank, (28), (31), (33); cited from earlier work
[2] = Relative effect (RE) of superdisintegrant on drug apparent solubility (shake-flask, physical mixtures); format: physicochemical
Experimental: (§1) Compendial media (0.1 N HCl pH 1, phosphate buffer pH 6.8) were prepared according to the method described in European Pharmacopoeia ([35]). Fasted State Simulated Gastric Fluid (FaSSGF) and Fasted State Simulated Intestinal Fluid (FaSSIF-V2) were prepared as described by Jantratid et al.([36]).
(§2) Drug solubility studies in the absence and presence of excipient were performed in triplicate using the shake-flask method ([38]). Drug excess amount and 2% w/w or 5% w/w of each excipient were weighed and placed in centrifuge tubes. […] The physical mixtures were vortexed for 3 min. Then 5 mL of each medium was added in the tubes and the samples were placed in a shaking water bath (37°C, 200 strokes per minute (spm)). […] Filter adsorption studies were prior performed in triplicate for each drug. […] Filtered samples were further diluted (if needed) with the corresponding medium and analysed by HPLC (Supplementary Table I). Analytical HPLC procedures for drug quantification in the samples were modifications of already published methods. Drug quantification was made based on calibration curves. Standards were formulated from concentrated stock solution consisting of drug dissolved in MeOH. […] Drug solubility was calculated based on the sample drug concentration measured.

[3] = design: method as in earlier work; details: ref (20), (22), (24), (25), (27), (30), (31), (34); cited from earlier work
[4] = Shake-flask drug solubility in absence of excipient (reference solubility); format: physicochemical
Experimental: as §1, §2

[5] = aqueous buffer, thermodynamic from solid, Phosphate buffer pH 6.8 (compendial), 37°C, mean ± SD, read-out: Reference solubility
[6] = fassgf or other biorelevant, thermodynamic from solid, FaSSGF (biorelevant), 37°C, mean ± SD, read-out: Reference solubility
[7] = simulated gastric fluid, thermodynamic from solid, 0.1 N HCl pH 1 (compendial), 37°C, mean ± SD, read-out: Reference solubility
[8] = thermodynamic from solid, FaSSIF-V2 (biorelevant), 37°C, mean ± SD, read-out: Reference solubility

Structure (SMILES)	Ionization (type) [1]	Relative effect (RE) of excipient on drug solubility ([2]; CCS(L), high level, phosphate buffer pH 6.8, 24 h) [%]	Solubility (based on BCS classification) [3]	solubility at 24 h [4, 5] [µg/mL]	solubility at 0.5 h ([4]; compendial media (0.1 N HCl pH 1; phosphate buffer pH 6.8), 37 °C, thermodynamic from solid, compendial media, 0.5 h, read-out: Solubility of pure drug) [µg/mL]	solubility at 24 h ([4]; compendial media (0.1 N HCl pH 1; phosphate buffer pH 6.8), compendial media, read-out: Solubility of pure drug) [µg/mL]	solubility at 24 h [4, 6] [µg/mL]	solubility at 24 h [4, 7] [µg/mL]	solubility at 24 h [4, 8] [µg/mL]	Relative effect (RE) of excipient on drug solubility ([2]; 5% CCS(H), FaSSIF-V2, 24 h) [%]	Relative effect (RE) of excipient on drug solubility ([2]; CCS(H), low level, FaSSIF-V2, 24 h) [%]	Relative effect (RE) of excipient on drug solubility ([2]; Explotab CLV (SSG), high excipient level, FaSSIF-V2, 24 h) [%]	Relative effect (RE) of excipient on drug solubility ([2]; Glycolys (SSG), both excipient levels, FaSSIF-V2, 24 h)	Relative effect (RE) of excipient on drug solubility ([2]; Glycolys (SSG), high excipient level, 0.1 N HCl pH 1, 24 h) [%]	Relative effect (RE) of excipient on drug solubility ([2]; Glycolys (SSG), low excipient level, 0.1 N HCl pH 1, 24 h) [%]	Relative effect (RE) of excipient on drug solubility ([2]; Glycolys LV (SSG), high excipient level, FaSSIF-V2, 24 h) [%]
NC(=O)N1c2ccccc2C=Cc2ccccc21 [CBZ, Carbamazepine]	Neutral	37	Low (27)	227 (≈ 961 µM)	350 (≈ 1480 µM)	250 (≈ 1060 µM)	368 (≈ 1560 µM)	265 (≈ 1120 µM)	280 (≈ 1190 µM)	–	–	–	–	–	–	–
OCCN(CCO)c1nc(N2CCCCC2)c2nc(N(CCO)CCO)nc(N3CCCCC3)c2n1 [DPL, Dipyridamole]	Weak base	–	Low (30)	5 (≈ 9.91 µM)	–	–	8600 (≈ 17000 µM)	13000 (≈ 25800 µM)	13 (≈ 25.8 µM)	–	–	–	–	–	–	–
CC(C)Cc1ccc(C(C)C(=O)O)cc1 (centres unmarked) [IBU, Ibuprofen]	Weak acid	–	–	5500 (≈ 26700 µM)	–	–	44 (≈ 213 µM)	43 (≈ 208 µM)	1500 (≈ 7270 µM)	–	–	–	–	–	–	–
CCC(C)n1ncn(-c2ccc(N3CCN(c4ccc(OCC5COC(Cn6cncn6)(c6ccc(Cl)cc6Cl)O5)cc4)CC3)cc2)c1=O (centres unmarked) [ITZ, Itraconazole]	Weak base	–	Low (34)	< 0.015	–	–	1.2 (≈ 1.7 µM)	11 (≈ 15.6 µM)	0.05 (≈ 0.0709 µM)	31	−40	25	approximately 50%	−25	−23	42
CC(=O)Nc1ccc(O)cc1 [PRC, Paracetamol]	Neutral	–	–	15000 (≈ 99200 µM)	–	–	17000 (≈ 112000 µM)	16000 (≈ 106000 µM)	17000 (≈ 112000 µM)	–	–	–	–	–	–	–
